Test results taken from the RepoRT retention time repository (doi:10.1038/s41586-021-03707-9).

Test: RP, Waters ACQUITY UPLC HSS C18, 100 × 2.1 mm, 1.7 µm, 40 °C, 0.35 mL/min, estimated dead time 0.63 min; A: water + 0.1% formic acid; B: methanol + 0.1% formic acid; gradient (min/%B) 0/0.5 4/70 4.5/98 5.4/98
Details: stereoisomer not certain

LC retention time [min]	SMILES
3.42	O=C(O)CCCCC1SCC2NC(=O)NC21 (centres undefined)
2.1	Cn1c(=O)[nH]c2[nH]c(=O)[nH]c2c1=O
0.912	Nc1ccn(C2OC(CO)C(OP(=O)(O)O)C2O)c(=O)n1 (centres undefined)
3.32	O=C(O)c1ccccc1C(=O)O
3.24	O=Cc1ccccc1C(=O)O
4.6	COC(=O)C1=C(C)NC(C)=C(C(=O)OCCN(C)Cc2ccccc2)C1c1cccc([N+](=O)[O-])c1 (centres undefined)
4.47	CCCc1nc(C)c2c(=O)[nH]c(-c3cc(S(=O)(=O)N4CCN(CC)CC4)ccc3OCC)nn12
3.94	CC(C)CC(O)C(=O)O (centres undefined)
1.99	NCc1ccccc1
4.3	CCCOC(=O)c1cc(O)c(O)c(O)c1
4.77	OC(CCN1CCCCC1)(c1ccccc1)C1CCCCC1 (centres undefined)
1.51	O=C(O)c1c[nH]c(=O)[nH]c1=O
4.44	CN(C)CCC=C1c2ccccc2COc2ccccc21
2.19	O=C(O)c1ccccc1O
4.53	COc1ccc(C2Sc3ccccc3N(CCN(C)C)C(=O)C2OC(C)=O)cc1 (centres undefined)
3.03	O=C(C=Cc1ccc(O)c(O)c1)OC1CC(O)(C(=O)O)CC(O)C1O (centres undefined)
0.806	NCC(O)c1ccc(O)c(O)c1 (centres undefined)
3.14	CN(C)CCOC(C)(c1ccccc1)c1ccccn1 (centres undefined)
1.54	Nc1ccc(O)c(C(=O)O)c1
0.822	C[N+](C)(C)CCOP(=O)([O-])OP(=O)(O)OCC1OC(n2ccc(N)nc2=O)C(O)C1O (centres undefined)
4.42	COc1ccc2nc(S(=O)Cc3ncc(C)c(OC)c3C)[nH]c2c1 (centres undefined)
1.38	O=c1[nH]cnc2nc[nH]c12
1.42	Nc1ccccc1O
5.32	CC(=O)OCC(=O)C1(O)CCC2C3CCC4=CC(=O)CCC4(C)C3C(O)CC21C (centres undefined)
3.84	CC(C(=O)O)c1ccc(O)cc1 (centres undefined)
4.72	CNCCC(Oc1ccccc1C)c1ccccc1 (centres undefined)

LC retention time [min]	SMILES
3.23	O=C(O)Cc1ccc(O)cc1
1.35	O=C(O)c1cccnc1C(=O)O
4.33	CC(C)NCC(O)COc1cccc2ccccc12 (centres undefined)
5.35	CC(=O)Oc1cc(C)c(OC(C)=O)c2ccccc12
2.89	CC(=O)NC(Cc1ccc(O)cc1)C(=O)O (centres undefined)
4.37	CN(C)CCOC(c1ccccc1)c1ccccc1
2.69	Nc1ccc(C(=O)O)c(O)c1
1.94	O=c1cccc[nH]1
1.62	CN1CC(=O)NC1=O
1.16	O=C(O)C=Cc1cnc[nH]1
1.35	NCCc1ccc(O)c(O)c1
1.66	NC(Cc1ccc(O)cc1)C(=O)O (centres undefined)
5.33	CC12CCC(=O)C=C1CCC1C2CCC2(C)C1CCC2(O)C(=O)CO (centres undefined)
0.867	O=C(O)C1(O)CC(O)C(O)C(O)C1 (centres undefined)
0.829	Nc1ccc(O)cc1
2.91	O=Cc1ccc(O)c(O)c1
2.25	CC1OC(n2cnc3c(N)ncnc32)C(O)C1O (centres undefined)
2.38	Cn1ccc(=O)n(C)c1=O
3.87	COc1cc(C=CC(=O)O)ccc1O
3.23	COC(=O)c1cccnc1
4.77	CN(C)CCCN1c2ccccc2CCc2ccccc21
4.5	Cc1cc2nc3[nH]c(=O)[nH]c(=O)c3nc2cc1C
2.17	Cn1c(=O)[nH]c(=O)c2[nH]cnc21
0.907	NC(=O)c1ccc[n+](C2OC(COP(=O)([O-])O)C(O)C2O)c1 (centres undefined)
2.28	Cn1c(=O)[nH]c2nc[nH]c2c1=O
4.39	O=C(O)C#Cc1ccccc1

LC retention time [min]	SMILES
3.62	COc1ccc(-c2oc3cc(O)ccc3c(=O)c2O)cc1O
5.28	COC(=O)C1=C(C)NC(C)=C(C(=O)OC)C1c1ccccc1[N+](=O)[O-]
4.54	COc1ccc(CCN(C)CCCC(C#N)(c2ccc(OC)c(OC)c2)C(C)C)cc1OC (centres undefined)
0.862	Cn1cnc(=N)c2[nH]cnc21
2.04	CCC1C(=O)OCC1Cc1cncn1C (centres undefined)
3.23	O=C(O)CNC(=O)c1ccccc1
3.63	CCc1occc(=O)c1O
5.19	CSc1ccc2c(c1)N(CCC1CCCCN1C)c1ccccc1S2 (centres undefined)
3.23	Cn1c(=O)c2c(ncn2C)n(C)c1=O
5.02	COc1ccccc1C=CC=O
4.46	C=Cc1ccc(O)cc1
1.54	Nc1cccc(C(=O)O)c1O
5.31	CC12CCC(=O)C=C1CCC1C2C(O)CC2(C)C(C(=O)CO)CCC12 (centres undefined)
3.85	Oc1c[nH]c2ccccc12
4.61	CC12CCC3c4ccc(O)cc4CCC3C1CC(O)C2O (centres undefined)
1.88	Nc1nc2c(ncn2CCC(CO)CO)c(=O)[nH]1
3.76	O=C(O)C=Cc1ccc(O)cc1
1.41	O=c1[nH]c(=O)c2ncn(C3OC(COP(=O)(O)O)C(O)C3O)c2[nH]1 (centres undefined)
3.76	O=C1Cc2ccccc2N1
4.92	O=C(O)C=Cc1ccccc1
4.85	CN(C)CCC=C1c2ccccc2CCc2ccccc21
4.59	O=C(O)C=Cc1c[nH]c2ccccc12
1.02	O=S(=O)(O)c1ccc(O)cc1
1.71	Nc1ncnc2c1ncn2C1OC(CSCCC(N)C(=O)O)C(O)C1O (centres undefined)

Continued, compound first:

SMILES	LC retention time [min]
O=C(O)C=C(CC(=O)O)C(=O)O	1.84
OCC1OC(OC2C(CO)OC(O)C(O)C2O)C(O)C(O)C1O (centres undefined)	0.801
CN1C2CCC1CC(OC(=O)C(CO)c1ccccc1)C2 (centres undefined)	3.22
C[N+](C)(C)[O-]	0.766
O=C(O)CCCCCC(=O)O	3.46
NC(N)=NC(CC(=O)O)C(=O)O (centres undefined)	0.802
O=C(O)CC(O)(CC(=O)O)C(=O)O	1.43
CCCCCCCCCC(=O)OC(CC(=O)[O-])C[N+](C)(C)C (centres undefined)	5.25
O=C(O)CCC(=O)O	1.73
NC(CCOC(=O)CCC(=O)O)C(=O)O (centres undefined)	1.36
CCOC(=O)C(=O)C(C)C(=O)OCC (centres undefined)	4.56
NC(=O)c1ncn(C2OC(COP(=O)(O)O)C(O)C2O)c1N (centres undefined)	1.11
O=CNCC(=O)O	0.919
O=C(O)CCCCCCCCC(=O)O	4.96
CC(CCC(=O)O)CC(=O)O (centres undefined)	3.46
CNC(CCC(=O)O)C(=O)O (centres undefined)	0.817
NC(=O)NC(NC(N)=O)C(=O)O	0.777
CC(=O)NC1C(O)CC(O)(C(=O)O)OC1C(O)C(O)CO (centres undefined)	0.846
CNCCc1ccccc1	2.61
O=C(O)CCO	0.782
CC(=O)NC(CC(=O)O)C(=O)O (centres undefined)	1.23

SMILES	LC retention time [min]
NC1CCSC1=O (centres undefined)	0.873
NC(CCS)C(=O)O (centres undefined)	0.907
CC(=O)OCC[N+](C)(C)C	0.907
NC(N)=S	0.847
CCOC(=O)c1cncn1C(C)c1ccccc1 (centres undefined)	5.14
CCC1CCC(=O)O1 (centres undefined)	3.33
CCCC(=O)NCC(=O)O	2.36
CC(C)C(O)(CC(=O)O)C(=O)O (centres undefined)	3.35
CC(=CC(=O)O)CC(=O)O	3.07
O=C(O)C(O)C(O)C(O)C(=O)CO (centres undefined)	0.808
CC(O)(CC(=O)O)CC(=O)O	1.9
CCOC(=O)CCC(=O)OCC	4.61
NCC(=O)CCC(=O)O	0.768
NC(CS(=O)O)C(=O)O (centres undefined)	0.768
NC(CCC(=O)NC(CS)C(=O)NCC(=O)O)C(=O)O (centres undefined)	3.37
OCC(O)C(O)C(OC1OC(CO)C(O)C(O)C1O)C(O)CO (centres undefined)	4.47
CCC(=O)NCC(=O)O	1.7
NC(=O)Cc1ccccc1	3.38
CC(CC(=O)O)C(=O)O (centres undefined)	2.58
O=C(O)CC(O)C(=O)O (centres undefined)	1.92
CC(C)CC(=O)NCC(=O)O	3.07

SMILES	LC retention time [min]
CC(=O)NC(CCC(=O)O)C(=O)O (centres undefined)	1.63
NC(CSCC(=O)O)C(=O)O (centres undefined)	0.873
CCC(=O)OC(CC(=O)[O-])C[N+](C)(C)C (centres undefined)	1.82
CCOC(=O)CC(=O)OCC	4.32
O=C(O)CCCCCCCC(=O)O	4.56
O=C(O)CC=CCC(=O)O	2.67
CN(C)CCc1ccccc1	2.61
NC(CS(=O)(=O)O)C(=O)O (centres undefined)	0.773
NC(CS)C(=O)O (centres undefined)	0.798
NC12CC3CC(CC(C3)C1)C2	3.49
CC12CC3CC(C)(C1)CC(N)(C3)C2	4.42
NC(CCC(=O)O)C(=O)O (centres undefined)	0.764
C[N+](C)(C)CCOP(=O)([O-])OCC(O)CO (centres undefined)	0.764
CC(=O)OCC1OC(OC(C)=O)C(OC(C)=O)C(OC(C)=O)C1OC(C)=O (centres undefined)	4.5
CCC1OC(=O)C(C)C(OC2CC(C)(OC)C(O)C(C)O2)C(C)C(OC2OC(C)CC(N(C)C)C2O)C(C)(O)CC(C)C(=O)C(C)C(O)C1(C)O (centres undefined)	4.82
CC(CCC(=O)O)C(=O)O (centres undefined)	2.97
O=C(O)CCCCC(=O)O	2.83
NCC(O)c1ccc(O)cc1 (centres undefined)	0.904
CC(=O)CC(=O)CCC(=O)O	3.3
O=P(O)(O)OCC1OC(O)C(O)C1O (centres undefined)	0.778
CNC(CC(=O)O)C(=O)O (centres undefined)	0.772
